Reference: ChEMBL document CHEMBL1131354 (Bioorg Med Chem Lett, 1998)

Target: T1, Melatonin receptor type 1B (Gallus gallus, UniProt P51050)
T1 sequence (P51050 whole entry): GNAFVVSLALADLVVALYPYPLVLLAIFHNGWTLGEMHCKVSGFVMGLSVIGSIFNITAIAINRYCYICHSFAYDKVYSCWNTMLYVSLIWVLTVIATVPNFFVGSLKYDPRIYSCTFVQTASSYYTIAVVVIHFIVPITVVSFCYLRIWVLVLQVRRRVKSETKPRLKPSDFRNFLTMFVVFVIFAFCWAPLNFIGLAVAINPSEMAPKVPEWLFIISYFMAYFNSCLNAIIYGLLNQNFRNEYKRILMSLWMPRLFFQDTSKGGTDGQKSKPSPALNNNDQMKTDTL
Test: Binding affinity measured against Chicken brain melatonin receptor by using 2-[125I]iodomelatonin as radioligand

Structure (SMILES) | Ki [nM]
CCC(=O)NCC1CCc2ccc(OC)cc21 (single isomer, unassigned; (-)) | 456
COc1ccc2c(c1)C(CNC(C)=O)C2 (configuration not stated) | 224
CCC(=O)NCC1CCCc2ccc(OC)cc21 (racemic) | 0.53
CCC(=O)NCC1CCc2ccc(OC)cc21 (single isomer, unassigned; (+)) | 3
CCC(=O)NCC1CCCc2ccc(OC)cc21 (single isomer, unassigned; (+)) | 0.45
CCCC(=O)NCC1CCCCc2ccc(OC)cc21 (configuration not stated) | 1
COc1ccc2c(c1)C(CNC(C)=O)CCCC2 (configuration not stated) | 34
COc1ccc2c(c1)C(CNC(C)=O)CC2 (configuration not stated) | 77

More lines, now with the values ahead:

Ki [nM] | Structure (SMILES)
49 | CCCC(=O)NCC1Cc2ccc(OC)cc21 (configuration not stated)
4 | COc1ccc2c(c1)C(CNC(C)=O)CCC2 (configuration not stated)
16 | CCC(=O)NCC1CCc2ccc(OC)cc21 (racemic)
0.45 | CCCC(=O)NCC1CCCc2ccc(OC)cc21 (configuration not stated)
29 | CCC(=O)NCC1CCCCc2ccc(OC)cc21 (configuration not stated)
161 | COc1cccc2c1CC(NC(C)=O)CC2 (configuration not stated)
> 1000 | CCC(=O)NCC1CCCc2ccc(OC)cc21 (single isomer, unassigned; (-))
40 | CCC(=O)NCC1Cc2ccc(OC)cc21 (configuration not stated)
7.6 | CCCC(=O)NCC1CCc2ccc(OC)cc21 (configuration not stated)
